Measured values from patent US7109193B2, “Tricyclic diazepines tocolytic oxytocin receptor antagonists” (Wyeth, priority 2001, dated 2006).

The molecules below were run against T1, human vasopressin V1a receptor subtype (Homo sapiens, UniProt P37288) (assay: Vasopressin binding in Chinese Hamster Ovary cell membranes expressing human vasopressin V1a subtype receptors). Conditions: 100 nM, CHO cell membranes, [3H]Manning ligand, values without parentheses.
T1 construct: host or cells: CHO cells (pZeoSV vector for the Thibonnier line)
Experimental: Vasopressin Binding in Chinese Hamster Ovary Cell Membranes Expressing Human Vasopressin V1a Subtype Receptors
The trypsin is removed by aspiration and the cells dislodged by tapping. Cell Culture medium (e.g. 30 mL for 1:30 split) is immediately added and mixed well to inactivate trypsin. 1 mL of detached cells is added to new culture flasks containing fresh cell culture medium (e.g., into 25 mL per T-150 flask), and mixed gently. The cells are incubated at 37° C. in 5% CO2. The medium is changed at 3 to 4 days interval (or as appropriate). […] All steps are done under sterile conditions. B. Membrane Preparation: The cells are washed twice gently with Hank's Balanced Salt solution (e.g,. use 10 mL per T-150 flask). […] The contents are transferred to centrifuge tubes (50 mL) kept in an ice bath. All subsequent steps are done at 4° C. The tubes are centrifuged at 300×g for 15 min (1380 rpm on SORVAL, Model RT6000D, using the rotor for 50 mL tubes). The supernatant is discarded and the cells suspended in homogenizing buffer(10 mM Tris-HCl containing 0.25 M sucrose and 1 mM EDTA, pH 7.4) ensuring that the volume of the buffer is about ten times the volume of the cell pellet. The cells are pooled into a centrifuge tube (50 mL) and homogenized with a Polytron at setting 6 for 10 sec. The homogenate is transferred into a Potter-Elvjehm homogenizer and homogenized with 3 strokes. The homogenate is centrifuged at 1500×g for 10 min at 4° C. (3100 rpm using SORVAL, model RT6000D, using the rotor for 50 mL tubes). The pellet is discarded. The supernatant is centrifuged at 100,000×g for 60 min. at 4° C. (Beckman L8-80M ultracentrifuge; spin at 37,500 rpm with rotor type 70 Ti for 50 mL tubes; 38,000 rpm with type 80Ti for 15 mL tubes; or 35,800 rpm with rotor type 45Ti). The supernantant is discarded and the pellet suspended in 3 to 4 mL of Tris buffer (50 mM TRIS-HCl, pH 7.4). The protein content is estimated by the Bradford or Lowry method. The volume of the membrane suspension is adjusted with the membrane buffer (50 mM Tris-HCl containing 0.1% BSA and 0.1 mM PMSF) to give 3.0 mg/mL (or as appropriate) of protein. The membranes are aliquoted and stored at −70° C. C. Radioligand Binding Assay: In wells of a 96-well format microtiter plate, is added 90, 110 or 130 μL (to make up a final volume of 200 μL) of assay buffer containing 50 mM of Tris-HCl (pH 7.4), BSA (heat inactivated, protease-free), […], 1 mg % aprotinin, 1 mg % leupeptin, 2 mg % 1,10-phenanthroline, 10 mg % trypsin inhibitor, and 0.1 mM PMSF. The inhibitors are added on the day of the experiment. The components are mixed at room temperature, and then kept in ice bath following adjustment of the pH to 7.4. […] 20 μL of 50% DMSO is added for Manning and other peptide ligands and the assay buffer volume is adjusted accordingly. To each well is added 50 μL of frozen membrane suspension thawed immediately prior to use and diluted in the assay buffer to the required concentration (equivalent to 25 to 50 μg of protein/well as needed). 20 μL of 8 nM [^3H]Manning ligand in the assay buffer, prepared just before use, is added, and incubated at room temperature for 60 min. shaking the plate on a mechanical shaker for the first 15 min. The incubation is stopped by rapid filtration of the plate contents followed by wash with ice-cold buffer (50 mM Tris-HCl, pH 7.4) using a cell harvester (Tomtek and Printed filtermat-B filter paper). The filter paper is thoroughly dried (7–12 min. in a microwave oven) and impregnated with MeltiLex B/H melt-on scintillation wax sheets and the radioactivity counted in a betaplate scintillation counter.
Binding data is either reported as percent inhibition at a certain concentration or if an IC50 was calculated, as a nanomolar concentration.

T1 sequence (P37288 whole entry): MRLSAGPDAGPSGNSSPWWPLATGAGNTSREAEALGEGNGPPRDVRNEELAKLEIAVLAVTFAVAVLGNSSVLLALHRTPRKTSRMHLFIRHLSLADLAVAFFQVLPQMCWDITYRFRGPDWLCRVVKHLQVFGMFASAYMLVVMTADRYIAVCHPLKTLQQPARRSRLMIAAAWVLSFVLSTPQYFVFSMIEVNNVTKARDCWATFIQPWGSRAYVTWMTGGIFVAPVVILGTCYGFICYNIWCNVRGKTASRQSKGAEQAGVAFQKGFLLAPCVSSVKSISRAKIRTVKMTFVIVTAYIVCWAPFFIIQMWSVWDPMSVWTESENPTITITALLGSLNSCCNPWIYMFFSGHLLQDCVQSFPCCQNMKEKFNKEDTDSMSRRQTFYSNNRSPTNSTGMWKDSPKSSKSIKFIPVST

Row | SMILES | V1a % inhibition @ 100 nM [%] | inhibition at 0.1 µM [%]
1 | Cc1cccc(N2CCN(C(=O)c3ccc4n3Cc3ccccc3N(C(=O)c3ccc(-c5ccccc5C(F)(F)F)c(C)c3)C4)CC2C)c1 (stereo not drawn) [Example 5, [3-Methyl-4-(3-methyl-phenyl)-piperazin-1-yl]-[10-(2-methyl-2′-trifluoromethyl-[1,1′-biphenyl]-4-yl)carbonyl]-10,11-dihydro-5H-pyrrolo[2,1-c][1,4]benzodiazepin-3-yl-methanone] | −6 | 
2 | COc1cc(C(=O)N2Cc3ccc(C(=O)N4CCC[C@H]4CN4CCCC4)n3Cc3ccccc32)ccc1-c1ccccc1C [Example 266, {10-[(2-Methoxy-2′-methyl[1,1′-biphenyl]-4-yl)carbonyl]-10,11-dihydro-5H-pyrrolo[2,1-c][1,4]benzodiazepin-3-yl}[(2S)-2-(1-pyrrolidinylmethyl)pyrrolidinyl]methanone] | 49 | 
3 | COc1cccc(-c2ccc(C(=O)N3Cc4ccc(C(=O)NCCN5CCCCC5)n4Cc4ccccc43)cc2C)c1 [Example 151, 10-[(3′-Methoxy-2-methyl[1,1′-biphenyl]-4-yl)carbonyl]-N-[2-(1-piperidinyl)ethyl]-10,11-dihydro-5H-pyrrolo[2,1-c][1,4]benzodiazepine-3-carboxamide] |  | 17
4 | COc1ccccc1-c1ccc(C(=O)N2Cc3ccc(C(=O)N4CCC(N5CCCCC5)CC4)n3Cc3ccccc32)cc1C [Example 112, {10-[(2-Methyl-2′-methoxy[1,1′-biphenyl]-4-yl)carbonyl]-10,11-dihydro-5H-pyrrolo[2,1-c][1,4]benzodiazepin-3-yl}[4-(1-piperidinyl)-1-piperidinyl]methanone] |  | 8
5 | COc1cccc(-c2cc(OC)c(C(=O)N3Cc4ccc(C(=O)N5CCN(CCN6CCOCC6)CC5)n4Cc4ccccc43)cc2Cl)c1 [Example 212, {10-[(6-Chloro-3,3′-dimethoxy[1,1′-biphenyl]-4-yl)carbonyl]-10,11-dihydro-5H-pyrrolo[2,1-c][1,4]benzodiazepin-3-yl}{4-[2-(4-morpholinyl)ethyl]-1-piperazinyi}methanone] | 35 | 
6 | COc1ccccc1-c1ccc(C(=O)N2Cc3ccc(C(=O)NCCCn4ccnc4)n3Cc3ccccc32)cc1OC [Example 132, 10-[(2,2′-Dimethoxy[1,1′-biphenyl]-4-yl)carbonyl]-N-[3-(1H-imidazol-1-yl)propyl]-10,11-dihydro-5H-pyrrolo[2,1-c][1,4]benzodiazepine-3-carboxamide] |  | 2
7 | COc1cc(C(=O)N2Cc3ccc(C(=O)N4CC[C@@H](N(C)C)C4)n3Cc3ccccc32)ccc1-n1c(C)ccc1C [Example 322, [(3R)-3-(Dimethylamino)pyrrolidinyl]{10-[4-(2,5-dimethyl-1H-pyrrol-1-yl)-3-methoxybenzoyl]-10,11-dihydro-5H-pyrrolo[2,1-c][1,4]benzodiazepin-3-yl}methanone] | 12 | 
8 | COc1cccc(-c2cc(OC)c(C(=O)N3Cc4ccc(C(=O)NCCCn5ccnc5)n4Cc4ccccc43)cc2Cl)c1 [Example 130, 10-[(6-Chloro-3,3′-dimethoxy[1,1′-biphenyl]-4-yl)carbonyl]-N-[3-(1H-imidazol-1-yl)propyl]-10,11-dihydro-5H-pyrrolo[2,1-c][1,4]benzodiazepine-3-carboxamide] |  | 4
9 | COc1cc(C(=O)N2Cc3ccc(C(=O)N4CCC[C@H]4CN4CCCC4)n3Cc3ccccc32)ccc1-c1cccc2ccccc12 [Example 262, {10-[3-Methoxy-4-(1-naphthyl)benzoyl]-10,11-dihydro-5H-pyrrolo[2,1-c][1,4]benzodiazepin-3-yl}[(2S)-2-(1-pyrrolidinylmethyl)pyrrolidinyl]methanone] | 8 | 
10 | COc1ccccc1-c1ccc(C(=O)N2Cc3ccc(C(=O)NCCCn4ccnc4)n3Cc3ccccc32)cc1C [Example 123, N-[3-(1H-Imidazol-1-yl)propyl]-10-[(2′-methoxy-2-methyl[1,1′-biphenyl]-4-yl)carbonyl]-10,11-dihydro-5H-pyrrolo[2,1-c][1,4]benzodiazepine-3-carboxamide] |  | 9
11 | COc1ccccc1-c1ccc(C(=O)N2Cc3ccc(C(=O)N4CCC(N5CCCC5)CC4)n3Cc3ccccc32)cc1OC [Example 145, {10-[(2,2′-Dimethoxy[1,1′-biphenyl]4-yl)carbonyl]-10,11-dihydro-5H-pyrrolo[2,1-c][1,4]benzodiazepin-3-yl}[4-(1-pyrrolidinyl)-l-piperidinyl]methanone] | −4 | 
12 | O=C(NCCCn1ccnc1)c1ccc2n1Cc1ccccc1N(C(=O)c1ccc(-c3cccc4ccccc34)cc1Cl)C2 [Example 134, 10-[2-Chloro-4-(1-naphthyl)benzoyl]-N-[3-(1H-imidazol-1-yl)propyl]-10,11-dihydro-5H-pyrrolo[2,1-c][1,4]benzodiazepine-3-carboxamide] |  | 5
13 | Cc1ccccc1-c1ccc(C(=O)N2Cc3ccc(C(=O)N4CC[C@@H](N(C)C)C4)n3Cc3ccccc32)cc1 [Example 280, [(3R)-3-(Dimethylamino)pyrrolidinyl]{10-[(2′-methyl[1,1′-biphenyl]-4-yl)carbonyl]-10,11-dihydro-5H-pyrrolo[2,1-c][1,4]benzodiazepin-3-yl}methanone] | 77 | 
14 | COc1cc(C(=O)N2Cc3ccc(C(=O)N4CC[C@@H](N(C)C)C4)n3Cc3ccccc32)ccc1-c1cccc2ccccc12 [Example 276, [(3R)-3-(Dimethylamino)pyrrolidinyl]{10-[3-methoxy-4-(1-naphthyl)benzoyl]-10,11-dihydro-5H-pyrrolo[2,1-c][1,4]benzodiazepin-3-yl}methanone] | 4 | 
15 | COc1cccc(-c2cc(OC)c(C(=O)N3Cc4ccc(C(=O)N5CC[C@@H](N(C)C)C5)n4Cc4ccccc43)cc2Cl)c1 [Example 275, {10-[(6-Chloro-3,3′-dimethoxy[1,1′-biphenyl]-4-yl)carbonyl]-10,11-dihydro-5H-pyrrolo[2,1-c][1,4]benzodiazepin-3-yl}[(3R)-3-(dimethylamino)pyrrolidinyl]methanone] | 9 | 
16 | COc1cc(C(=O)N2Cc3ccc(C(=O)N4CCC[C@H]4CN4CCCC4)n3Cc3ccccc32)ccc1-c1ccccc1Cl [Example 33, {[10-(2-Methoxy)-2′-chloro-[1,1′-biphenyl]-4-yl]carbonyl}-[(2S)-[(2-pyrrolidin-1-yl)methyl]pyrrolidin-1-yl]-10,11-dihydro-5H-pyrrolo[2,1-c][1,4]benzodiazepin-3-yl-methanone] | 68 | 
17 | COc1ccccc1-c1ccc(C(=O)N2Cc3ccc(C(=O)N(C)CCCN(C)C)n3Cc3ccccc32)cc1OC [Example 107, 10-[(2,2′-Dimethoxy[1,1′-biphenyl]-4-yl)carbonyl]-N-[3-(dimethylamino)propyl]-N-methyl-10,11-dihydro-5H-pyrrolo[2,1-c][1,4]benzodiazepine-3-carboxamide] |  | 15
18 | Cc1ccccc1-c1ccc(C(=O)N2Cc3ccc(C(=O)N4CCC(N5CCCC5)CC4)n3Cc3ccccc32)cc1C [Example 138, {10-[(2,2′-Dimethyl[1,1′-biphenyl]-4-yl)carbonyl]-10,11-dihydro-5H-pyrrolo[2,1-c][1,4]benzodiazepin-3-yl}[4-(1-pyrrolidinyl)-1-piperidinyl]methanone] |  | 47
